Assay results published in paper PMC8861431, “Tissue Pharmacokinetic Properties and Bystander Potential of Hypoxia-Activated Prodrug CP-506 by Agent-Based Modelling” (Frontiers in Pharmacology, 2022).

Columns and labels:
Type in all cases: in vitro ADME, human
[1] = Cellular uptake studies / cellular PK model; details: human, POR-overexpressing HCT-116 (POR-R) cell monolayer; Table S3, cellular PK model (extracellular instability); read-out: T1/2: time required to reduce the concentration to half its initial value (converted)
Experimental: (§1) The intracellular/extracellular partitioning ratio for CP-506 and its major metabolites was determined in monolayer cultures of POR-overexpressing HCT-116 cells, as described previously ([Hong et al., 2018b]). Briefly, cells (5 x 10^5 per well) were seeded with 350 µl medium into 24-well plates and left to attach for 2 h in a humidified 37°C incubator. Stock solutions of CP-506 were diluted and added with 50 µl medium to the well volume to achieve a final concentration of 100 µM. Samples were harvested at various time points for up to 3 h thereafter. Aerobic experiments were performed under standard tissue culture conditions (21% O2), and the anoxic experiments in parallel in a H2/Pd-catalyst-scrubbed anaerobic chamber as described. The well volume was spiked with [^3H]-mannitol immediately before sample harvest and treated with two-volumes of ice-cold acetonitrile containing 2 µM of the deuterated (D8) internal standards for each CP-506, CP-506H and CP-506M. The cell monolayer was then treated with 100 µl of this crashing solution. Samples were stored at −80°C until LC-MS/MS analysis. The cellular exclusion of [^3H]-mannitol was used to account for the contribution of the extracellular medium toward determinations of the intracellular concentration, as described previously ([Foehrenbacher et al., 2013a]).
(§2) An agent-based model (ABM) employing a one-dimensional approximation for monolayers was used to develop a cellular PK model, as described in further detail elsewhere ([Hong et al., 2018b]; [Mao et al., 2018]). The mathematical framework assumes that solute concentrations in the medium are dependent only on the depth (on the z coordinate) and not the lateral position (x,y) so that all cells are exposed to the same concentration of nutrients and drugs within the monolayer culture. Moreover, all cells have the same rate of metabolism and volume growth at any instance with variability allowed in cell volume, rate of cell division and cell death. Monolayer ABM simulations were performed on a desktop Windows PC (Intel core I7 processor) from a Qt (Qt Company, https://www.qt.io/) graphical user interface passing parameters to a DLL built with Fortran95. The monolayer ABM uses a finite difference method to solve reaction-diffusion equations for each compound (N) in the medium and cells. Parameters for the cellular uptake and metabolism were fitted to the concentration-time profiles of CP-506 and its metabolites in monolayer cultures of POR-R cells using a linear (first order) cell transport and metabolism model. Terms for the extracellular instability of CP-506 and its metabolites were set at their respective values in media stability studies, and media diffusion coefficients were estimated from the support membrane diffusion coefficients described below. Experimental data describing the kinetics of CP-506 uptake under aerobic conditions was fitted by adjusting the permeability coefficients kin and kout for each compound. These values were fixed for anoxic experiments to allow for parameter estimation of the rate of intracellular CP-506 metabolism (kmet0) as well as the intracellular/extracellular partitioning ratio (kin and kout) and metabolic instability (kmet0) for its cytotoxic metabolites.

[2] = system: POR-overexpressing HCT-116 cells (POR-R) monolayer; assay: Cellular uptake studies / cellular PK model; details: for k in: rate constant for transfer from the extracellular to intracellular volume / k out: rate constant for transfer from the intracellular to extracellular volume: Table 1, ABM parameter, estimated from partitioning in monolayer cultures; for kin: rate of transfer from the extracellular to the intracellular compartment / kout: rate of transfer from the intracellular to the extracellular compartment: Table S3, cellular PK model, monolayer ABM fit; for kmet: rate of metabolism to the next metabolite: Table S3, anoxic, CP-506 to CP-506H, CP-506H to CP-506M, CP-506M to CP-506M-Cl2; for Activator k met0: rate constant for the maximum rate of metabolism in POR-R cells under anoxia / kmet: rate of metabolism to the next metabolite: POR-R cells
Experimental: as §1, §2

[3] = system: HCT-116 cells (PORko-G, HCT-116 WT, POR-R); assay: Cellular metabolism assay (LC-MS/MS of reduced metabolites); details: for Metabolite concentration, fold higher in POR-R cells than HCT-116 WT cells / Metabolite concentration, fold lower in PORko-G cells than HCT-116 WT cells: after 1 h treatment with 100 µM CP-506, anoxic
Experimental: Aerobic and anoxic conditions were achieved as described above. Cells (5 x 10^5 per well) were seeded with 350 µl medium in duplicate into 24-well plates and left to attach for 2 h in a humidified 37°C incubator. A working solution of CP-506 was prepared in culture medium to achieve a 100 µM concentration in each well after the addition of a 500 µl volume. Plates were exposed to drug for 1 h in a humidified 37°C incubator. Metabolism was then halted by the addition of two-volumes of ice-cold acetonitrile containing 2 µM of internal standard for each analyte. Samples were stored at −80°C until LC-MS/MS analysis.
The LC system for tandem MS consisted of an Agilent 1200 autosampler (4°C) and binary pump, a 3.0 × 50 mm, 1.8-micron Zorbax SB-C18 column (Agilent; PN: 827975-302) and 2.1 × 7 mm guard column (Alltech, IL) maintained at 35°C, at a pressure of <400 bar and flow rate of 0.3 ml/min. The mobile phase comprised a gradient of 0.01% formic acid in 80% acetonitrile - 20% water, v/v (solvent A), and 0.01% formic acid in water (solvent B). Initial mobile phase composition was 20% solvent A and 80% solvent B, increasing to 60% A (0–3 min) then 80% A (3–5.45 min), returning to initial conditions (5.5–6 min). Post-run time was 1 min, and the total run time was […]. Mass spectrometric detection was carried out using an Agilent 6410 triple quadrupole mass spectrometer equipped with a multimode ionization (MMI) source. The mass spectrometer was operated in electrospray positive ionization mode using multiple reaction monitoring (MRM), with Q1 & Q3 set to unit resolution ([…]). The electrospray ionization parameters, optimized for the parent molecular ion ([M+H]+) abundance were: drying gas temperature 325°C, vaporiser temperature 150°C, drying gas flow 5 L/min, nebuliser pressure 50 psi, capillary voltage 1.8 kV, Delta EMV 300 V. Ultra-pure nitrogen was used as collision gas. The divert valve feature of the Agilent 6410 triple quadrupole mass spectrometer was utilised to prevent the eluate from entering the ionisation source chamber during the first 0.5 min of each run. For CP-506 samples, positively charged ions representing the [M+H]+ for CP-506 and CP-506-D8 were collisionally dissociated to form specific product ions which were monitored in MS2 (unit resolution). The MRM transition, ionization mode, collision energy, dwell time, fragmentor voltage and retention time for all compounds is provided in Supplementary Table S2. Agilent MassHunter software (v.4.04.00) was used for data acquisition and chromatographic peak integration.

Row | Compound | half-life at 100 µM [1] [min] | Activator k met0: rate constant for the maximum rate of metabolism in POR-R cells under anoxia [2] [min⁻¹] | k in: rate constant for transfer from the extracellular to intracellular volume [2] [min⁻¹] | k out: rate constant for transfer from the intracellular to extracellular volume [2] [min⁻¹] | kin: rate of transfer from the extracellular to the intracellular compartment [2] [min⁻¹] | kout: rate of transfer from the intracellular to the extracellular compartment [2] [min⁻¹] | kmet: rate of metabolism to the next metabolite [2] [min⁻¹] | Steady-state Ci/Ce ratio (cell uptake) ([2]; anoxic <1 ppm O2, POR-R monolayer) [fold] | Metabolite concentration, fold higher in POR-R cells than HCT-116 WT cells [3] [fold] | Metabolite concentration, fold lower in PORko-G cells than HCT-116 WT cells [3] [fold] | Metabolite production suppressed in POR knockout relative to the POR-overexpressing cell line ([3]; anoxic, Figure 3A) [fold] | Activator k met0: rate constant for the maximum rate of metabolism in POR-R cells under anoxia ([2]; footnote d: assumed equivalent to the measured metabolites or from published PR-104A estimates)
1 | CCN1CCN(C(=O)c2cc(N(CCBr)CCOS(C)(=O)=O)c(S(C)(=O)=O)cc2[N+](=O)[O-])CC1 [CP-506, 2-[(2-bromoethyl)-5-[(4-ethyl-1-piperazinyl)carbonyl]-2-(methylsulfonyl)-4-nitroanilino]ethyl methanesulfonate] | 1200 | 0.12 | 3.7 | 0.06 | 3.7 | 0.06 | 0.12 | 40 |  |  |  | 
2 | CCN1CCN(C(=O)c2cc(N(CCBr)CCOS(C)(=O)=O)c(S(C)(=O)=O)cc2NO)CC1 [CP-506H, 2-((2-bromoethyl)(5-(4-ethylpiperazine-1-carbonyl)-4-(hydroxyamino)-2-(methylsulfonyl)phenyl)amino)ethyl methanesulfonate] | 12.6 | 0.09 | 0.9 | 0.25 | 0.9 | 0.25 | 0.09 |  | 5.5 |  |  | 
3 | CCN1CCN(C(=O)c2cc(N(CCBr)CCOS(C)(=O)=O)c(S(C)(=O)=O)cc2N)CC1 [CP-506M, 2-((4-amino-5-(4-ethylpiperazine-1-carbonyl)-2-(methylsulfonyl)phenyl)(2-bromoethyl)amino)ethyl methanesulfonate] | 6.6 | 0.1 | 0.9 | 0.4 | 0.9 | 0.4 | 0.1 |  |  | 4.1 |  | 
4 | CCN1CCN(C(=O)c2cc(N(CCCl)CCCl)c(S(C)(=O)=O)cc2N)CC1 [CP-506M-Cl2, (2-Amino-5-(bis(2-chloroethyl)amino)-4-(methylsulfonyl)phenyl)(4-ethylpiperazin-1-yl)methanone] |  |  |  |  |  |  |  |  | 8.6 | 17.7 | 151 | 0.1 ^d min^−1
